From patent US20030229451A1, “Methods and systems for analyzing complex biological systems” (priority 2001, published 2003)

Legend:
[1] = tested on: Magnaporthe grisea; assay type: cell-based
[2] = tested on: Arabidopsis thaliana; experiment: MOA1 biochemical (metabolite) profiling by LC-MS and GC-MS
[3] = tested on: Arabidopsis thaliana plants; experiment: SOA1 phenotypic analysis of herbicide-treated Arabidopsis (MIC, Tmic, leaf traits); assay type: in vivo; conditions: for characteristic morphological symptoms: herbicide-treated Arabidopsis; for leafCurling Dev. / leafTwisting Dev. / leafWidth Dev. / matureLeafAnthocyanins Dev. / matureLeafChlorosis Dev. / matureLeafNecrosis Dev. / newLeafAnthocyanins Dev. / newLeafChlorosis Dev. / newLeafNecrosis Dev. / pointedLeaves Dev.: numeric value standardized to mock treated; for tMic Dev.: time to full range of symptoms at MIC, coded
[4] = tested on: Arabidopsis thaliana; experiment: MOA1 gene expression profiling (22,000 gene array); conditions: for Regulated Genes: Down / Regulated Genes: Up: 1 hr, p < 0.5; for No. of Lethal Genes Altered: genes essential for plant growth and development
[5] = tested on: Saccharomyces cerevisiae wild type strain BY4743; experiment: AF1 metabolite analysis (GC-MS, LC-MS) of yeast cells treated with antifungal drugs; assay type: cell-based; conditions: P < 0.1; 2x MIC, two hours
[6] = tested on: Saccharomyces cerevisiae wild type strain BY4743; experiment: AF1 combined gene expression and metabolite mapping to reactions and pathways (KEGG); assay type: cell-based
Description: The pathway score indicates how meaningful the mapping is, or how likely it is to be correctly indicative of the pathway involved in the perturbation under examination. The method provides a pathway score based on perturbation levels of genes and/or compounds and the information content of each gene and/or compound in the pathway, i.e., a pathway score indicates the extent to which other pathways are mapped to a gene/compound. For example, imagine that two genes are perturbed in a particular experiment. One gene maps to only one pathway, giving a high degree of probability that the perturbed pathway is the one identified in the mapping. The second gene maps to three pathways. In the later example, there is only one-third the probability that the pathway identified in the mapping is the one perturbed. The present invention provides a method for calculating the pathway scores, so that more weight is given to a score of a gene or compound that maps to only one pathway than to a score of a gene or compound that maps to multiple pathways. […] Where n=the total number of genes in the pathway; ipath—count=the number of pathways containing a gene; and j=the number of genes in the pathway that are perturbed. Another factor to be considered when weighting a pathway score is the degree of perturbation. Degree of perturbation can be calculated, for example, based on a number of standard deviations from a norm, and included in an equation such as the one shown above, so that not only the number of pathways is taken into account, but also accounts for the amount of gene transcript or compound present as compared to a control. The data were then combined to determine the number of reactions showing an enzyme and at least one compound perturbed, and to determine the number of pathways having at least one enzyme and one perturbed compound perturbed. The results of the analysis are represented in Tables 16 and 17, and were difficult to interpret, illustrating that the ability to draw conclusions from compound mapping to pathways is limited when absent additional data.

[7] = concentrations insufficient to inhibit growth

Compound | Number of Metabolites Changed: (unknown #) ([2]; 20 min, p < 0.05) | Number of Metabolites Changed: Total # ([2]; 20 min, p < 0.05) | Number of Metabolites Changed: (unknown #) ([2]; 20 min, p < 0.11) | Number of Metabolites Changed: Total # ([2]; 20 min, p < 0.11) | Number of Metabolites Changed: (unknown #) ([2]; 1 hr, p < 0.05) | Number of Metabolites Changed: Total # ([2]; 1 hr, p < 0.05) | Number of Metabolites Changed: (unknown #) ([2]; 1 hr, p < 0.11) | Number of Metabolites Changed: Total # ([2]; 1 hr, p < 0.11) | characteristic morphological symptoms [3] | leafCurling Dev. [3] | leafTwisting Dev. [3] | leafWidth Dev. [3] | matureLeafAnthocyanins Dev. [3] | matureLeafChlorosis Dev. [3] | matureLeafNecrosis Dev. [3] | newLeafAnthocyanins Dev. [3] | newLeafChlorosis Dev. [3] | newLeafNecrosis Dev. [3] | pointedLeaves Dev. [3] | tMic Dev. [3] | further results
CP(=O)(O)CCC(N)C(=O)O (stereo not drawn) [Glufosinate] | 25 | 33 | 33 | 48 | 4 (4) | 4 (4) | 9 (9) | 9 (9) | Chlorosis and leaf curling | 2 | 1 | −2 | 0 | 3 | 0 | 0 | 3 | 0 | 1 | 1 | nitrogen source utilization by M. grisea ([1]; in the presence of compound): only able to utilize glutamine and glutamate as nitrogen sources; Regulated Genes: Down [4]: 54; Regulated Genes: Up [4]: 296; No. of Lethal Genes Altered [4]: 10
O=C(O)CNCP(=O)(O)O [Glyphosate] | 2 | 4 | 9 | 13 | 9 | 16 | 24 | 46 | anthocyanin accumulation in the older leaves accompanied by chlorosis of the newly emerging leaves | 0 | 0 | 0 | 3 | 1 | 3 | 1 | 2 | 0 | 1 | 2 | growth results for Tiers 3 and 4 compared to Unknown 4 ([1]; 250 μg/ml): nearly identical; growth inhibition of M. grisea ([1]; 1.0 mg/ml): remediated by inclusion of aromatic amino acids; tyrosine level ([2]; relative to the control): decreased
CC(=O)N1CCN(c2ccc(OCC3COC(Cn4ccnc4)(c4ccc(Cl)cc4Cl)O3)cc2)CC1 (stereo not drawn) [Ketoconazole] | – | – | – | – | – | – | – | – | – | – | – | – | – | – | – | – | – | – | – | – | # Compounds perturbed [5]: 15; # Reactions Having an Enzyme and at Least One Compound Perturbed [6]: 21; Number Of Pathways Having at Least One Enzyme and One Compound Perturbed (# Reactions) [6]: 24
CS(=O)(=O)c1cc(C(F)(F)F)ccc1C(=O)c1cnoc1C1CC1 [Isoxaflutole] | 29 | 45 | 39 | 62 | 13 | 14 | 21 | 25 | – | – | – | – | – | – | – | – | – | – | – | – | growth of M. grisea in minimal media [1, 7]: unaffected; growth of M. grisea in minimal plus tyrosine media [1, 7]: inhibited; phenylalanine level ([2]; relative to the control): up-regulated; tyrosine level ([2]; relative to the control): up-regulated; Alpha-tocopherol level ([2]; relative to the control, early time points): not significantly changed; Regulated Genes: Down [4]: 370; Regulated Genes: Up [4]: 143; No. of Lethal Genes Altered [4]: 15
